What all share (test): biochemical
What all share (set-up): DiscoveRx KINOMEscan active site-directed competition binding; percent of control kinase bound to immobilised ligand

The target in one experiment is T1, STK36 (Homo sapiens, UniProt Q9NRP7).
T1 sequence (Q9NRP7 1-1315): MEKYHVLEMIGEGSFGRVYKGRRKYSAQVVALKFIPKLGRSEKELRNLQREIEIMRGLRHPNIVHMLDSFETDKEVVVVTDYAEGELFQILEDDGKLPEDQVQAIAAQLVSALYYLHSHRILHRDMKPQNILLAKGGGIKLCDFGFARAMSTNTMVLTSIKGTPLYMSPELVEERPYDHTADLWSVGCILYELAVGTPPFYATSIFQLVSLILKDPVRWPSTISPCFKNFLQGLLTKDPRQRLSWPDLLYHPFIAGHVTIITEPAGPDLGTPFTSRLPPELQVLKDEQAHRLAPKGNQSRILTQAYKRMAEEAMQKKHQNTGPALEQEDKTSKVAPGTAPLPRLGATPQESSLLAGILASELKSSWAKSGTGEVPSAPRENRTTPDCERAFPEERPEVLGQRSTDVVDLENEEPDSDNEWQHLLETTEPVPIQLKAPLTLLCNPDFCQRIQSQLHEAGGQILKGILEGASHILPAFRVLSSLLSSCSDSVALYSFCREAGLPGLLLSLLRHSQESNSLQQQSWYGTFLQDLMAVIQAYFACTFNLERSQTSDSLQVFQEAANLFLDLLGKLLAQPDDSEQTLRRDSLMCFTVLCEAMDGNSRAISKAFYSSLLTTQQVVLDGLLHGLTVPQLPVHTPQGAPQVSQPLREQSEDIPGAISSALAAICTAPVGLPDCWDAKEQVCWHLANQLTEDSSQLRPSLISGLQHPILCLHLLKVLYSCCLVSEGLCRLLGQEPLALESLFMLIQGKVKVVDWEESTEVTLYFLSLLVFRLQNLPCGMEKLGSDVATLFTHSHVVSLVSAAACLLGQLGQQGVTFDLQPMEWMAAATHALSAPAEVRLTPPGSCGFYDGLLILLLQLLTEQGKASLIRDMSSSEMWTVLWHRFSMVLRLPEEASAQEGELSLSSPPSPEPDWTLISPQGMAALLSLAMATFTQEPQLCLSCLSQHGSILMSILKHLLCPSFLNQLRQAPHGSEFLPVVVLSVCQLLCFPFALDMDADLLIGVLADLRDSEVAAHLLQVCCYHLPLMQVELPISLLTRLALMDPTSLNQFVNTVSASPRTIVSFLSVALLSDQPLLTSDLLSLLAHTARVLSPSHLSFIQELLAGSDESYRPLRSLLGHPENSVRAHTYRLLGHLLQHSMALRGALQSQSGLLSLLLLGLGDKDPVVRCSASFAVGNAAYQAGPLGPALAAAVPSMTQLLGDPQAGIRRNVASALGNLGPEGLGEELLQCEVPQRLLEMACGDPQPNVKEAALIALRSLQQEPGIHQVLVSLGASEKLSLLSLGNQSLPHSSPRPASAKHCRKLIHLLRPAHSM

Another experiment addresses T2, ABL1-phosphorylated (Homo sapiens, UniProt P00519).
T2 construct: phosphorylated

In another experiment the target is T3, CSNK1A1L (Homo sapiens, UniProt Q8N752).
T3 sequence (Q8N752 1-337): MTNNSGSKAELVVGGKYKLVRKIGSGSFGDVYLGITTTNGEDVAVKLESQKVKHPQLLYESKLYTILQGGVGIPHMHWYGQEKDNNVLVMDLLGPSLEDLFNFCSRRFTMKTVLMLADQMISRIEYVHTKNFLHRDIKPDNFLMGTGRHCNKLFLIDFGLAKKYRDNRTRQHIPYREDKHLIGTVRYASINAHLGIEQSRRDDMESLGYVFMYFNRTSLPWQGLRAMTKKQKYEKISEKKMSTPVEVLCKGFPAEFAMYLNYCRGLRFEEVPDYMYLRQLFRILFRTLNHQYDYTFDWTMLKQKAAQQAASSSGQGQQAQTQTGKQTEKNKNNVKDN

[1] abbreviates: read-out: Rucaparib / %Ctrl @ 10000nM, binding competition, % of control.
Setting [2] is: read-out: Talazoparib (BMN 673) / %Ctrl @ 10000nM.
[3] abbreviates: read-out: Niraparib (MK-4827) / %Ctrl @ 10000nM.
Where [4] appears, read: read-out: Olaparib / %Ctrl @ 10000nM.

The values below come from paper PMC7026418, “The kinase polypharmacology landscape of clinical PARP inhibitors” (Scientific Reports, 2020).

The structures appear in SMILES notation. Read-outs that look alike come from different tables or passages of the source.

T2 sequence (P00519 whole entry): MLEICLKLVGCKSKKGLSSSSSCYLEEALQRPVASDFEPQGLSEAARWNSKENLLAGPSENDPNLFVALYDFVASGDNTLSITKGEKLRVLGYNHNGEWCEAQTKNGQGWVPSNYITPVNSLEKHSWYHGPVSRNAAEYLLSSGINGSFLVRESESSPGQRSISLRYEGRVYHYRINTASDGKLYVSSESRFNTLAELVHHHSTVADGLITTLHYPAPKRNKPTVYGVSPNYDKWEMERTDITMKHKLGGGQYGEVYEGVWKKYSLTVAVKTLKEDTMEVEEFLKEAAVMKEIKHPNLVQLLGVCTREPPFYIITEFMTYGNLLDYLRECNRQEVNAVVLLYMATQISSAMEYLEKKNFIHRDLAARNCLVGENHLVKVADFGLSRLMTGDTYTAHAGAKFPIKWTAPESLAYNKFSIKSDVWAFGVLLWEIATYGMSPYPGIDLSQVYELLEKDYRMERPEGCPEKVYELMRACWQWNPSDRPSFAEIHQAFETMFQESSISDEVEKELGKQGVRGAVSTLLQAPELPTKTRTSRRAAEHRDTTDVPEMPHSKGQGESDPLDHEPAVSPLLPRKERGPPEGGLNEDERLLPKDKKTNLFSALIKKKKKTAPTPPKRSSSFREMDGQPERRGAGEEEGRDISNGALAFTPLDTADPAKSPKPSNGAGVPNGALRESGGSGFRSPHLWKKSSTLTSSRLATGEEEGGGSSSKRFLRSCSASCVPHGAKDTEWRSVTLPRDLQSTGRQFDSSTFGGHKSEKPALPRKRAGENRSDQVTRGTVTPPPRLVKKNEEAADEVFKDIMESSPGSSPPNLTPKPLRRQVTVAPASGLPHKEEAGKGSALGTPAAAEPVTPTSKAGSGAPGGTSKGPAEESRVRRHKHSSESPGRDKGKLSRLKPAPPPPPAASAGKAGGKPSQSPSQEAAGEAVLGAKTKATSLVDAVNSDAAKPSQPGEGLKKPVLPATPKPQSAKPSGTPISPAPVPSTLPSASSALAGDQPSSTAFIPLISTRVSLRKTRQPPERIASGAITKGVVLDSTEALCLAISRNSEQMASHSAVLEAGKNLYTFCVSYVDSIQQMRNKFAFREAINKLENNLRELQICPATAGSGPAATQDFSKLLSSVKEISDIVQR

For the compound `CNCc1ccc(-c2[nH]c3cc(F)cc4c3c2CCNC4=O)cc1` [Rucaparib], the percent of control binding at 10 µM was 69% on STK36 (setting [1]), 98% at ABL1-phosphorylated (setting [1]) and 86% on CSNK1A1L (setting [1]).

Take `Cn1ncnc1[C@H]1c2n[nH]c(=O)c3cc(F)cc(c23)N[C@@H]1c1ccc(F)cc1` [Talazoparib]: the percent of control binding at 10 µM on STK36 (setting [2]) turned out to be 56%; at ABL1-phosphorylated (setting [2]) it was 100%; at CSNK1A1L (setting [2]) it was 100%.

As to `NC(=O)c1cccc2cn(-c3ccc([C@@H]4CCCNC4)cc3)nc12` [Niraparib], the percent of control binding at 10 µM at STK36 (setting [3]) stood at 88%; at ABL1-phosphorylated (setting [3]), 80%; at CSNK1A1L (setting [3]), 76%.

In the case of `O=C(c1cc(Cc2n[nH]c(=O)c3ccccc23)ccc1F)N1CCN(C(=O)C2CC2)CC1` [Olaparib], the percent of control binding at 10 µM on STK36 (setting [4]) worked out at 96%; on ABL1-phosphorylated (setting [4]), 98%; at CSNK1A1L (setting [4]) it was 99%.
